Patent US8747809B2, “Single diastereomers of 4-fluoroglutamine and methods of their preparation and use” (The Trustees Of The University Of Pennsylvania, priority 2009, dated 2014)
“Also recorded” adds a separate entry of the source.

Assays:
[1] = system: 9 L tumor cell line; test: In vitro cell uptake studies of the four 4-[18F]F-glutamine isomers; type: cell-based, rat; conditions: 18F-labeled isomer, 37° C., 5-120 min, compared to [3H]glutamine
Experimental: Cell uptake of four possible isomers was evaluated using 9 L tumor cell line. The cell uptake results (% dose/100 μg protein) were compared to that of [^3H] glutamine.
(§1) Because of this observation, we decided only to further investigate the (2S,4R) isomer of [^18F]4-FGln, 1. In vitro cell uptake inhibition studies were conducted in 9 L cells in order to test the specificity of [^18F]4-FGln (2S,4R), 1. Cold L-glutamine and L-serine served as the positive control inhibitors for the glutamine transporters. L-glutamine inhibits system N transporter and L-serine inhibits the ASC transporter. Three different concentrations were tested for each inhibitor ranging from 0.5 mM to 5 mM. After 30 minutes of co-incubation of L-glutamine and [^18F] […] Cold MeAIB served as the negative control, which inhibits system A transporter.
(§2) The cellular uptake of each of the four 4-[^18F]F-glutamine isomers (2S,4R), (2S,4S), (2R,4S) and (2R,4R) were studied in (9 L) rat brain gliosarcoma cells. L-[3,4-^3H(N)]-glutamine, >97%, 250 μCi (9.25 MBq), was purchased from Perkin Elmer and was used as a control for all of the cellular uptake experiments conducted. […] All four of the 4-[^18F]F-glutamine isomers and the L-[3,4-^3H(N)]-glutamine was dissolved in PBS solution and was added to each well (500,000 cpm/mL/well) and incubated at 37° C. for 5, 30, 60, 120 min. At the end of the incubation period, the wells were aspirated and then the residual cells were washed 3 times with 1 mL ice cold PBS without Ca^2+ and Mg^2+. After washing with cold PBS, 350 μL 1M NaOH was used to lyse the cells. The lysed cells were collected onto filter paper. The filter papers were placed in scintillation vials and counting fluid was added (7 mL ecolite+) and the vials were then counted with a beta counter 18-24 h later. For dual-isotope studies using 4-[^18F]F-glutamine isomers and L-[3,4-^3H(N)]-glutamine, the vials were counted first using a gamma counter to obtain ^18F counts. The beta counts were then obtained one day later after the ^18F was fully decayed. 100 μL of the cell lysate was used for the determination of the protein concentration by Lowry method.

[2] = In vivo biodistribution study in normal mice; conditions: for % Dose/Gram, Blood / % Dose/Gram, Bone / % Dose/Gram, Brain / % Dose/Gram, Heart / % Dose/Gram, Kidney / % Dose/Gram, Liver / % Dose/Gram, Lung / % Dose/Gram, Muscle / % Dose/Gram, Pancreas / % Dose/Gram, Skin / % Dose/Gram, Spleen: normal ICR mice, n = 5
Experimental: To test the [^18F]-4F-glutamine isomers as a novel tumor PET imaging agents, we tested the [^18F]-4F-glutamine (2S,4R) (1) in normal ICR mice weighing 20-25 grams. 5 mice per group were used for the biodistrubution study. The mice were put under anesthesia with the use of isoflurane and 0.15 mL saline solution containing 25 μCi of each isomer was injected via the lateral tail vein. The mice were sacrificed at 2, 30, 60, 120 and 240 minutes post-injection by cardiac excision while under isoflurane anesthesia. The organs of interest were removed, weighed and the radioactivity was counted with a gamma counter (Packard Cobra). The percent dose per gram was calculated by a comparison of the tissue activity counts to counts of 1.0% of the initial dose. The initial dose consists of 100 times diluted aliquots of the injected material measured at the same rate.

[3] = system: 9 L cells; test: In vitro inhibition studies of 4-[18F]F-glutamine (2S,4R) uptake; type: cell-based, rat; conditions: for effect of inhibitor on tracer uptake / transporter (in words): 0.5 mM to 5 mM; for uptake of [18F]4-FGln (2S,4R) in presence of inhibitor: 30 minutes co-incubation, 5 mM stated for MeAIB, control 3.56
Experimental: as §1, §2
To test the specificity of the 4-[^18F]F-glutamine (2S,4R) isomer, inhibition studies were conducted using 9 L cells. The tracer was incubated at 37° C. for 30 min. The cells were processed as previously described as above. Cold L-glutamine and L-Serine served as the positive control inhibitors for the glutamine transporters. L-glutamine inhibits system N transporter and L-Serine inhibits the ASC transporter. Cold MeAIB served as the negative control, which inhibits system A transporter. Three different concentrations were tested for each inhibitor ranging from 0.5 mM to 5 mM.

[4] = system: M/tomND spontaneous human mammary tumors; test: Dynamic small animal PET (A-PET) imaging; type: in vivo, mice; conditions: ~300 μCi via lateral tail vein, 120 minutes imaging, myc gene up-regulated
Experimental: Dynamic small animal PET (A-PET) imaging studies were conducted with 4-[^18F]F-glutamine (2S,4R) isomer. All scans were performed on a dedicated animal PET scanner (Mosaic by Phillips) (Surti, 2005). Transgenic mice bearing M/tomND spontaneous human mammary tumors were used in this study. There are many advantages to using this transgenic mouse model. A doxycycline sensitive promoter genetically engineers these mice to express the myc gene. These tumors spontaneously arise vs. traditional xenograph tumors. […] When doxycycline is removed, the myc gene is down regulated. This model was chosen because these compounds will allow a direct correlation between true glutamine uptake and the level of myc gene expression.
Glutamine uptake within the M/tomND tumor was examined by injecting ˜300 μCi of the [^18F]-4F-glutamine (2S,4R) isomer via the lateral tail vein. Imaging commenced immediately after the injection of the tracer and continued for a time period of 120 minutes.

## NC(=O)[C@H](F)C[C@H](N)C(=O)O [Compound 1, (2S,4R)-2,5-Diamino-4-fluoro-5-oxopentanoic acid]
[1]; listed as 4-FGln (2S,4R)
  cell uptake in 9 L cells (in words): high uptake; also recorded: excellent uptake

## NC(=O)[C@H]([18F])C[C@H](N)C(=O)O [Compound 1, (2S,4R)-2,5-Diamino-4-fluoro-5-oxopentanoic acid]
[2]; 2 min post-injection, iv
  % Dose/Gram, Blood: 6.19 ± 0.83 % Dose/Gram
  % Dose/Gram, Bone: 3.93 ± 0.37 % Dose/Gram
  % Dose/Gram, Brain: 0.54 ± 0.05 % Dose/Gram
  % Dose/Gram, Heart: 4.31 ± 0.32 % Dose/Gram
  % Dose/Gram, Kidney: 16.1 ± 1.03 % Dose/Gram
  % Dose/Gram, Liver: 6.92 ± 0.92 % Dose/Gram
  % Dose/Gram, Lung: 7.15 ± 0.76 % Dose/Gram
  % Dose/Gram, Muscle: 1.62 ± 0.10 % Dose/Gram
  % Dose/Gram, Pancreas: 17.2 ± 1.00 % Dose/Gram
  % Dose/Gram, Skin: 2.72 ± 0.05 % Dose/Gram
  % Dose/Gram, Spleen: 7.51 ± 0.44 % Dose/Gram
[2]; 30 min post-injection, iv
  % Dose/Gram, Blood: 2.72 ± 0.17 % Dose/Gram
  % Dose/Gram, Bone: 5.64 ± 0.69 % Dose/Gram
  % Dose/Gram, Brain: 0.51 ± 0.05 % Dose/Gram
  % Dose/Gram, Heart: 3.16 ± 0.25 % Dose/Gram
  % Dose/Gram, Kidney: 9.93 ± 0.52 % Dose/Gram
  % Dose/Gram, Liver: 6.23 ± 0.50 % Dose/Gram
  % Dose/Gram, Lung: 5.36 ± 0.49 % Dose/Gram
  % Dose/Gram, Muscle: 2.48 ± 0.16 % Dose/Gram
  % Dose/Gram, Pancreas: 19.7 ± 2.16 % Dose/Gram
  % Dose/Gram, Skin: 4.01 ± 0.24 % Dose/Gram
  % Dose/Gram, Spleen: 5.39 ± 0.72 % Dose/Gram
[2]; 60 min post-injection, iv
  % Dose/Gram, Blood: 2.05 ± 0.16 % Dose/Gram
  % Dose/Gram, Bone: 7.93 ± 1.02 % Dose/Gram
  % Dose/Gram, Brain: 0.53 ± 0.07 % Dose/Gram
  % Dose/Gram, Heart: 2.86 ± 0.47 % Dose/Gram
  % Dose/Gram, Kidney: 7.60 ± 0.84 % Dose/Gram
  % Dose/Gram, Liver: 5.70 ± 0.62 % Dose/Gram
  % Dose/Gram, Lung: 4.37 ± 0.28 % Dose/Gram
  % Dose/Gram, Muscle: 2.86 ± 0.34 % Dose/Gram
  % Dose/Gram, Pancreas: 17.5 ± 2.28 % Dose/Gram
  % Dose/Gram, Skin: 2.94 ± 0.68 % Dose/Gram
  % Dose/Gram, Spleen: 4.22 ± 0.38 % Dose/Gram
[2]; 120 min post-injection, iv
  % Dose/Gram, Blood: 0.83 ± 0.12 % Dose/Gram
  % Dose/Gram, Bone: 14.4 ± 1.31 % Dose/Gram
  % Dose/Gram, Brain: 0.57 ± 0.05 % Dose/Gram
  % Dose/Gram, Heart: 1.86 ± 0.24 % Dose/Gram
  % Dose/Gram, Kidney: 2.15 ± 0.34 % Dose/Gram
  % Dose/Gram, Liver: 2.46 ± 0.26 % Dose/Gram
  % Dose/Gram, Lung: 1.69 ± 0.10 % Dose/Gram
  % Dose/Gram, Muscle: 1.81 ± 0.26 % Dose/Gram
  % Dose/Gram, Pancreas: 9.57 ± 1.22 % Dose/Gram
  % Dose/Gram, Skin: 2.17 ± 0.16 % Dose/Gram
  % Dose/Gram, Spleen: 2.02 ± 0.16 % Dose/Gram
[2]; 240 min post-injection, iv
  % Dose/Gram, Blood: 0.48 ± 0.06 % Dose/Gram
  % Dose/Gram, Bone: 19.4 ± 0.50 % Dose/Gram
  % Dose/Gram, Brain: 0.45 ± 0.06 % Dose/Gram
  % Dose/Gram, Heart: 1.24 ± 0.19 % Dose/Gram
  % Dose/Gram, Kidney: 1.25 ± 0.21 % Dose/Gram
  % Dose/Gram, Liver: 1.30 ± 0.18 % Dose/Gram
  % Dose/Gram, Lung: 1.03 ± 0.15 % Dose/Gram
  % Dose/Gram, Muscle: 0.94 ± 0.15 % Dose/Gram
  % Dose/Gram, Pancreas: 5.92 ± 0.87 % Dose/Gram
  % Dose/Gram, Skin: 1.25 ± 0.13 % Dose/Gram
  % Dose/Gram, Spleen: 1.15 ± 0.14 % Dose/Gram
[2]; after 30 min, normal mice, iv
  pancreas to liver ratio: 4 to 1
[2]; inferred from increasing bone uptake at later time points
  in vivo de-fluorination (in words): likely that there was in vivo de-fluorination
[3]; 30 min, 37° C.
  uptake of [18F]4-FGln (2S,4R) without inhibitor (control): 3.56 % dose/100 ug protein
[1]
  cell uptake in 9 L cells (in words): highest uptake
[4]
  tumor uptake in PET images (in words): taken up in the tumor sites

## NC(=O)[C@@H](F)C[C@@H](N)C(=O)O [Compound 3, (2R,4S)-4-FGln]
[1]
  cell uptake in 9 L cells (in words): lower cell uptake

## NC(=O)[C@H](F)C[C@@H](N)C(=O)O [Compound 4, (2R,4R)-4-FGln]
[1]
  cell uptake in 9 L cells (in words): lower cell uptake

## NC(=O)CC[C@H](N)C(=O)O [L-glutamine]
[3]; 30 min
  effect of inhibitor on tracer uptake / transporter (in words): clearly inhibited
[3]
  uptake of [18F]4-FGln (2S,4R) in presence of inhibitor: 0.49 % dose/100 ug protein
[3]; Rattus norvegicus, 0.5 h, 30 min, [5 mM], read-out: inhibition of [18F]4-FGln (2S,4R) uptake
  inhibition at 5000 µM: ~90%

## N[C@@H](CO)C(=O)O [L-serine]
[3]; 30 min
  effect of inhibitor on tracer uptake / transporter (in words): considerable inhibition
[3]
  uptake of [18F]4-FGln (2S,4R) in presence of inhibitor: 1.41 % dose/100 ug protein

## CNC(C)(C)C(=O)O [MeAIB]
[3]; 30 min
  effect of inhibitor on tracer uptake / transporter (in words): little to no effect
[3]
  uptake of [18F]4-FGln (2S,4R) in presence of inhibitor: 3.69 % dose/100 ug protein
